ChEMBL document CHEMBL6115010, “Targeting glioma with heteroaromatic alkaloids: A review of potential therapeutics” (Bioorg Med Chem, 2025)
Values after ≈ are worked out from the molar mass of the structure shown. Values belong to the molecule of their own block, whether it stands above or below them.

How the values were obtained:
SF-295 [1] = experiment: Cytotoxicity against human SF-295 cells assessed as reduction in cell growth incubated for 96 hrs by MTT assay; type: functional, cell-based; conditions: SF-295, 96 h
SF-295 [2] = experiment: Cytotoxicity against human SF-295 cells; type: functional, cell-based
[3] = Inhibition of rat C6 cells at 1 micromol/L measured for 24 hrs relative to control; type: functional; conditions: C6, 24 h, dose 1 µmol/L
[4] = Inhibition of rat C6 cells at 2 micromol/L measured for 24 hrs relative to control; type: functional; conditions: C6, 24 h, dose 2 µmol/L
U-87 MG [5] = experiment: Cytotoxicity against human U-87 MG cells assessed as reduction in cell growth incubated for 48 hrs by MTT assay; type: functional, cell-based, U-87MG ATCC
T98G [6] = experiment: Cytotoxicity activity against human T98G cells assessed as reduction in cell growth measured for 48 hrs by MTS reagent based assay; type: functional
T98G [7] = experiment: Growth inhibition of human T98G cells measured after 72 hrs by MTT assay; type: functional
[8] = Growth inhibition of human U373 MG cells measured after 72 hrs by MTT assay; type: functional, U-373MG ATCC
Hs68 = experiment: Growth inhibition of human Hs68 cells measured after 72 hrs by MTT assay; type: functional
U-87 MG [9] = experiment: Growth inhibition of human U-87 MG cells measured after 72 hrs by MTT assay; type: functional, U-87MG ATCC
U-251 [10] = experiment: Antiproliferative activity against human U-251MG cells assessed as reduction in cell viability incubated for 72 hrs by SRB assay; type: functional, cell-based; conditions: U-251, 72 h
[11] = Cytotoxicity against HEK293T cells assessed as reduction in cell viability incubated for 72 hrs by MTS assay; type: toxicity, cell-based, HEK-293T; conditions: human
CCF-STTG1 = experiment: Cytotoxicity against human CCF-STTG1 cells assessed as reduction in cell growth incubated for 24 hrs by MTT assay; type: functional, cell-based; conditions: CCF-STTG1, 24 h
[12] = Cytotoxicity against human CHG-5 cells assessed as reduction in cell growth incubated for 24 hrs by MTT assay; type: functional, cell-based; conditions: CHG-5, 24 h
[13] = Cytotoxicity against human SHG-44 cells assessed as reduction in cell growth incubated for 24 hrs by MTT assay; type: functional, cell-based; conditions: SHG-44, 24 h
U-251 [14] = experiment: Cytotoxicity against human U-251MG cells assessed as reduction in cell growth incubated for 24 hrs by MTT assay; type: functional, cell-based; conditions: U-251, 24 h
SF-268 = experiment: Cytotoxicity against human SF-268 cells assessed as reduction in cell viability incubated for 72 hrs by MTT assay; type: functional, cell-based; conditions: SF-268, 72 h
[15] = Cytotoxicity against human GSC-3 cells assessed as reduction in cell growth incubated for 72 hrs by MTS assay; type: functional, cell-based; conditions: GSC-3, 72 h
[16] = Cytotoxicity against human GSC-18 cells assessed as reduction in cell growth incubated for 72 hrs by MTS assay; type: functional, cell-based; conditions: GSC18, 72 h
[17] = Cytotoxicity against rat ASK cells assessed as reduction in cell growth by SRB assay; type: functional; conditions: read-out: ED50 (the source's name)

Structure (SMILES): O=C1c2ccc(Br)cc2-[n+]2ccc3c([nH]c4ccccc43)c21
- IC50 (SF-295 [1]): 5.6 µM
- IC50 (SF-295 [2]): 3.9 µM

Structure (SMILES): C[n+]1cc2c3c(ccc2c2ccc4cc5c(cc4c21)OCO5)OCO3
- inhibition at 1 µM [3]: 35%
- inhibition at 2 µM [4]: 82%

Structure (SMILES): COc1ncc(O)c2c(O)cccc12
- IC50 (U-87 MG [5]): 2.14 µM

Structure (SMILES): C=CC(C)(C)n1cc(Cc2cn(C(C)(C)C=C)c3ccccc23)c2ccccc21
- IC50 (T98G [6]): 18 µg/mL (≈ 47.1 µM)

- GI50 (U-87 MG [9]): 6 µM
Structure (SMILES): CO[C@@H]1C=C[C@]23c4cc5c(cc4[C@@H](O)N(C[C@H]2O)[C@@H]3C1)OCO5
- GI50 (T98G [7]): 14 µM
- GI50 [8]: 7 µM
- GI50 (Hs68): 4 µM

- IC50 (U-251 [10]): 36.3 µM
Structure (SMILES): CC1=N[C@H](C(=O)O)CC2c3[nH]ccc3NC12 (some centres undefined)

Structure (SMILES): COc1cc2c(cc1OC)[C@H](Cc1cc(O)c(OC)c(Oc3ccc(C=O)cc3)c1)N(C)CC2
- IC50 at 72 h [11]: 20 µg/mL (≈ 43.1 µM)

Structure (SMILES): C=CC(C)(C)[C@@]12C[C@H]3C(=O)N[C@@H](Cc4ccccc4)C(=O)N3[C@@H]1N(C(C)=O)c1ccccc12
- IC50 (T98G [6]): 20 µg/mL (≈ 45.1 µM)

Structure (SMILES): COC(=O)N1CCc2cc3c(c4c2[C@@H]1Cc1ccc(OC)c(OC)c1-4)OCO3
- IC50 (CCF-STTG1): 9.2 µM
- IC50 [12]: 9.7 µM
- IC50 [13]: 11.3 µM
- IC50 (U-251 [14]): 11.3 µM

Structure (SMILES): CC[C@H](/C=C(C)/C=C/C(=O)c1c(O)c(-c2ccc(O)cc2)c[nH]c1=O)CO
- IC50 (SF-268): 31.1 µM

Structure (SMILES): COC(=O)N1CCc2cc(O)c(OC)c3c2[C@@H]1Cc1ccc(OC)c(O)c1-3
- IC50 (CCF-STTG1): 10.4 µM
- IC50 [12]: 12.2 µM
- IC50 [13]: 11.9 µM
- IC50 (U-251 [14]): 11.9 µM

Structure (SMILES): COc1cc2c(cc1Oc1c(C=O)ccc(OC)c1OC)cc1c3c(c(OC)c(OC)c(OC)c32)CCN1C
- IC50 [15]: 4.54 µg/mL (≈ 8.51 µM)
- IC50 [16]: 5.37 µg/mL (≈ 10.1 µM)
- EC50 [17]: 2.11 µg/mL (≈ 3.95 µM)

- IC50 (U-251 [10]): 26.1 µM
Structure (SMILES): CC1=NC(C(=O)O)Cc2c1[nH]c1cc([C@H](c3c[nH]c4ccccc34)[C@@H](O)CO)[nH]c21 (some centres undefined)

Structure (SMILES): COc1cc2c(cc1Oc1c(C=O)ccc(OC)c1OC)C(=O)c1nccc3c(OC)c(OC)c(OC)c-2c13
- IC50 [15]: 2.36 µg/mL (≈ 4.44 µM)
- IC50 [16]: 2.55 µg/mL (≈ 4.8 µM)
- EC50 [17]: 10.2 µg/mL (≈ 19.2 µM)
